Results reported in patent EP4117701B1, “COMPOSITIONS FOR THE PREVENTION AND/OR TREATMENT OF BENIGN PROSTATIC HYPERTROPHY (BPH)” (IDI Integratori Dietetici Italiani S.r.l., priority 2020, dated 2021).

What was measured:
in vitro = type: cell-based; conditions: human, lncap cells
Procedure: The cytotoxic activity of the considered plant extracts was evaluated in a human tumour prostate cell line (LNCaP). […] The treatment was prolonged for 6 hours, period of time corresponding to the overall duration of the pre-treatment and of post-treatment thereto the cells were subjected for the subsequent evaluation of the anti-inflammatory activity. At the end of the incubation period, the vitality of the prostate cells was evaluated by using the assay MTS, based upon the reduction of the compound MTS tetrazolium by the vital cells to generate a form of coloured formazan, which can be quantified by measuring the absorbance at 490-500 nm thereof.

[1] = system: human prostate cell line (LNCaP); test: Cytotoxicity of plant extracts, MTS assay, 24 hours; type: cell-based; conditions: extracts 0 to 1000 µg/mL (TEUPOL10 0 to 1500 µg/mL), Dutasteride 0 to 7.93 µg/mL
Procedure: The cytotoxic activity of considered plant extracts was evaluated in a human prostate cell line (LNCaP). The prostate cells were treated with growing concentrations of the plant extracts (from 0 to 1000 µg/mL for the extract of B. Serrata and S. Repens, from 0 to 1500 µg/mL for TEUPOL10) and of the positive control Dutasteride (from 0 µg/mL to 7.93 µg/mL). The treatment was prolonged for 24 hours, time corresponding to the overall duration of the experiments related to PSA and to 5-α-reductase. At the end of the incubation period, the vitality of the prostate cells was evaluated by using the assay MTS, based upon the reduction of the compound MTS tetrazolium by the vital cells to generate a coloured form, which can be quantified by measuring the absorbance thereof at 490-500 nm.

| MCC at 6 h (in vitro) | Compound | adverse effect on vitality of the prostate cells [1] |
| --- | --- | --- |
| 80 µg/mL | O=C(O)Cc1ccccc1Nc1c(Cl)cccc1Cl [Diclofenac] |  |
|  | C[C@]12C=CC(=O)N[C@@H]1CC[C@@H]1[C@@H]2CC[C@]2(C)[C@@H](C(=O)Nc3cc(C(F)(F)F)ccc3C(F)(F)F)CC[C@@H]12 [Dutasteride] | No adverse effect |
